Here are results for four compounds from article PMC9069370, “Integrated Design of a Membrane‐Lytic Peptide‐Based Intravenous Nanotherapeutic Suppresses Triple‐Negative Breast Cancer” (Advanced Science, 2022).

One test deals with HMLER. As to the kind of experiment: cells. The note with it: 72 h. The test is classed as cell-based, human. An excerpt: (§1) […], and MCF-10A cells were maintained in MEGM with supplements and growth factors bovine pituitary extract, hydrocortisone, human epidermal growth factor, insulin, and gentamicin/amphotericin-B.
The next test deals with HMLER‐shEcad. The test is described as follows: cells. The note with it: 72 h. It counts as cell-based, human.
From the text: as §1

The test system of another test is MCF‐10A. The test is described as follows: cells. The test is classed as cell-based, human. The note with it: 72 h.
From the text: as §1

For another test, the system named is U2OS. It counts as cell-based, human. To be noted: 72 h.
In the next test the test system is HEK293T. As to the kind of experiment: cells. The note with it: 72 h. The test is classed as cell-based, human.
A short description of test [1]: Tryptophan fluorescent binding assay. The note with it: tryptophan fluorescence; 50 µM peptide, lipid titrated 0-5000 µM; phosphate buffered saline 1X, pH 7.4; values as lipid per peptide. The method, then:
50 µM ACP peptides and varied concentrations (concentrations: 0, 25, 50, 100, 150, 200, 250, 500, 1250, and 2500 µM) of POPC or POPC:POPG (3:1 ratio) large unilamellar vesicles were prepared in 10 mM phosphate buffer (pH 7.0). The solutions were measured after 1 h of incubation. Excitation was fixed at 280 nm (slit 9 nm) and emission was collected from 300 to 450 nm (slit 9 nm). The spectra were recorded using Cytation 5 Cell Imaging Multi‐Mode Reader from BioTek and were averaged by three scans.
Lipid Concentration-induced
Name Sequence† 50% Peptide Binding (L/P)
Extended Data Table 3 | Tryptophan binding assay. […]
peptide binding onto liposome. 50 µM peptides were fixed and incubated with titrated lipid (POPC vesicle […]
phosphate buffered saline (1X, pH 7.4). The lipid concentration that causes 50 % peptide binding was determined using tryptophan fluorescent binding assay and the values are shown as lipid per peptide.

Test [2] is described as follows: ANTS/DPX liposome leakage assay. The note with it: 0.5 mM vesicles, peptide 0-20 µM, 3 h incubation, lipid per peptide; for Peptide Concentration-induced 50 % ANTS/DPX leakage at pH 4.8 (L/P), 3POPC/1POPG Vesicle / Peptide Concentration-induced 50 % ANTS/DPX leakage at pH 4.8 (L/P), POPC Vesicle: HCl-adjusted PBS 1X pH 4.8; for Peptide Concentration-induced 50 % ANTS/DPX leakage at pH 7.4 (L/P), 3POPC/1POPG Vesicle / Peptide Concentration-induced 50 % ANTS/DPX leakage at pH 7.4 (L/P), POPC Vesicle: PBS 1X pH 7.4, high ratio = more potent. How it is done:
Vesicle preparation: 5 mM ANTS and 12.5 mM DPX were entrapped in 0.1 µm diameter extruded vesicles (either POPC or POPC/POPG at a ratio of 3:1) with lipids. Gel filtration chromatography of Sephadex G‐100 was used to remove external free ANTS/DPX from LUVs with entrapped contents. LUVs were diluted to 0.5 mM and used to measure the leakage activity by the addition of aliquots of ACPs. Leakage was measured after 3 h incubation. 10% Triton was used as the positive control to measure the maximum leakage of the vesicle. Fluorescence emission spectra were recorded using excitation and emission wavelength of 350 and 510 nm for ANTS/DPX using a BioTek Synergy H1 Hybrid Multi‐Mode Reader.
Peptide Concentration-induced Peptide Concentration-induced
Name Sequence† 50 % ANTS/DPX leakage 50 % ANTS/DPX leakage at pH 7.4 (L/P) at pH 4.8 (L/P)
POPC Vesicle 3POPC/1POPG Vesicle POPC Vesicle 3POPC/1POPG Vesicle […]
Extended Data Table 4 | Peptide concentration-induced 50 % ANTS/DPX liposome leakage. 0.5 mM POPC and 3POPC/1POPG vesicles were fixed and incubated with titrated peptide concentration (0, 0.02, […]
hydrochloric acid-adjusted phoshate buffered saline (1X, pH 4.8). The values are shown as lipid per

Peptide text beside a SMILES is read from it.

In turn, `CC(C)C[C@H](NC(=O)CN)C(=O)N[C@@H](CC(C)C)C(=O)N[C@@H](CCCCN)C(=O)N[C@@H](CC(C)C)C(=O)N[C@@H](CC(C)C)C(=O)N[C@@H](CCCCN)C(=O)N[C@@H](CC(C)C)C(=O)N[C@@H](CC(C)C)C(=O)N[C@@H](CC(C)C)C(=O)N[C@@H](CCCCN)C(=O)N[C@@H](C)C(=O)N[C@@H](C)C(=O)NCC(=O)N[C@@H](Cc1c[nH]c2ccccc12)C(N)=O` [KKK] (H-GLLKLLKLLLKAAGW-NH2) had a half-inhibitory concentration (IC50) with HMLER of 1.57 ± 0.24 µM. Also, inhibition with HMLER‐shEcad was half-maximal at 1.35 ± 0.4 µM (IC50). The compound also gave an IC50 in the test with MCF‐10A of 1.37 ± 0.24 µM. The same compound returned an IC50 in the test on U2OS of 9.65 ± 1.2 µM. In addition, in the test with HEK293T, the IC50 was determined as 3.7 ± 0.14 µM. Further, in test [1], the “Lipid Concentration-induced 50% Peptide Binding (L/P), 3POPC/1POPG Vesicle” value was 1.70 L/P and the “Lipid Concentration-induced 50% Peptide Binding (L/P), POPC Vesicle” value is recorded as 1.25 L/P. Besides, in test [2], the “Peptide Concentration-induced 50 % ANTS/DPX leakage at pH 4.8 (L/P), 3POPC/1POPG Vesicle” value worked out at 81 L/P; the “Peptide Concentration-induced 50 % ANTS/DPX leakage at pH 4.8 (L/P), POPC Vesicle” value is recorded as 156 L/P; the “Peptide Concentration-induced 50 % ANTS/DPX leakage at pH 7.4 (L/P), 3POPC/1POPG Vesicle” value worked out at 115 L/P; the “Peptide Concentration-induced 50 % ANTS/DPX leakage at pH 7.4 (L/P), POPC Vesicle” value is 1369 L/P.
On to `CC(C)C[C@H](NC(=O)CN)C(=O)N[C@@H](CC(C)C)C(=O)N[C@@H](Cc1c[nH]cn1)C(=O)N[C@@H](CC(C)C)C(=O)N[C@@H](CC(C)C)C(=O)N[C@@H](CCCCN)C(=O)N[C@@H](CC(C)C)C(=O)N[C@@H](CC(C)C)C(=O)N[C@@H](CC(C)C)C(=O)N[C@@H](Cc1c[nH]cn1)C(=O)N[C@@H](C)C(=O)N[C@@H](C)C(=O)NCC(=O)N[C@@H](Cc1c[nH]c2ccccc12)C(N)=O` [HKH] (H-GLLHLLKLLLHAAGW-NH2), for which the 50% inhibitory concentration (IC50) in the test on HMLER stood at 3.45 ± 0.21 µM. In addition, the IC50 in the test on HMLER‐shEcad is 3.1 ± 0.57 µM. In addition, in the test with MCF‐10A, the IC50 came out at 6.1 µM. In addition, the IC50 in the test on U2OS was determined as 18.9 ± 1.24 µM. For the same compound, the IC50 in the test on HEK293T came to 5.7 ± 0.99 µM. Also, in test [1], the “Lipid Concentration-induced 50% Peptide Binding (L/P), 3POPC/1POPG Vesicle” value came out at 0.38 L/P and the “Lipid Concentration-induced 50% Peptide Binding (L/P), POPC Vesicle” value turned out to be 0.18 L/P. In test [2], the “Peptide Concentration-induced 50 % ANTS/DPX leakage at pH 4.8 (L/P), 3POPC/1POPG Vesicle” value is reported as 47 L/P; the “Peptide Concentration-induced 50 % ANTS/DPX leakage at pH 4.8 (L/P), POPC Vesicle” value amounted to 193 L/P; the “Peptide Concentration-induced 50 % ANTS/DPX leakage at pH 7.4 (L/P), 3POPC/1POPG Vesicle” value stood at 274 L/P; the “Peptide Concentration-induced 50 % ANTS/DPX leakage at pH 7.4 (L/P), POPC Vesicle” value amounted to 1077 L/P.
In the case of `CC(C)C[C@H](NC(=O)CN)C(=O)N[C@@H](CC(C)C)C(=O)N[C@@H](CCC(=O)O)C(=O)N[C@@H](CC(C)C)C(=O)N[C@@H](CC(C)C)C(=O)N[C@@H](Cc1c[nH]cn1)C(=O)N[C@@H](CC(C)C)C(=O)N[C@@H](CC(C)C)C(=O)N[C@@H](CC(C)C)C(=O)N[C@@H](CCCCN)C(=O)N[C@@H](C)C(=O)N[C@@H](C)C(=O)NCC(=O)N[C@@H](Cc1c[nH]c2ccccc12)C(N)=O` [EHK] (H-GLLELLHLLLKAAGW-NH2), the midpoint of inhibition in the test with HMLER, the IC50, lay at 1.35 ± 0.35 µM. Further, the IC50 in the test on HMLER‐shEcad is 0.71 ± 0.13 µM. The compound further gave an IC50 with MCF‐10A of 3.6 ± 0.99 µM. For the same compound, half-maximal inhibition in the test on U2OS (IC50) required 25 µM. This compound also yielded an IC50 in the test with HEK293T of 5.35 ± 0.07 µM. Besides, in test [1], the “Lipid Concentration-induced 50% Peptide Binding (L/P), 3POPC/1POPG Vesicle” value was 0.42 L/P and the “Lipid Concentration-induced 50% Peptide Binding (L/P), POPC Vesicle” value turned out to be 0.56 L/P. Further, in test [2], the “Peptide Concentration-induced 50 % ANTS/DPX leakage at pH 4.8 (L/P), 3POPC/1POPG Vesicle” value is reported as 117 L/P; the “Peptide Concentration-induced 50 % ANTS/DPX leakage at pH 4.8 (L/P), POPC Vesicle” value turned out to be 55 L/P; the “Peptide Concentration-induced 50 % ANTS/DPX leakage at pH 7.4 (L/P), 3POPC/1POPG Vesicle” value was determined as 505 L/P; the “Peptide Concentration-induced 50 % ANTS/DPX leakage at pH 7.4 (L/P), POPC Vesicle” value was 981 L/P.
For the compound `CC(C)C[C@H](NC(=O)CN)C(=O)N[C@@H](CC(C)C)C(=O)N[C@@H](Cc1c[nH]cn1)C(=O)N[C@@H](CC(C)C)C(=O)N[C@@H](CC(C)C)C(=O)N[C@@H](Cc1c[nH]cn1)C(=O)N[C@@H](CC(C)C)C(=O)N[C@@H](CC(C)C)C(=O)N[C@@H](CC(C)C)C(=O)N[C@@H](CCC(=O)O)C(=O)N[C@@H](C)C(=O)N[C@@H](C)C(=O)NCC(=O)N[C@@H](Cc1c[nH]c2ccccc12)C(N)=O` [HHE] (H-GLLHLLHLLLEAAGW-NH2), the concentration for half-maximal inhibition (IC50) in the test on HMLER was 16.7 ± 2.26 µM; in the test with HMLER‐shEcad it was 10.8 ± 0.78 µM; in the test on MCF‐10A, above 200 µM; in the test on U2OS, 53.2 ± 5.3 µM; with HEK293T it was 18.4 ± 3.75 µM. The “Lipid Concentration-induced 50% Peptide Binding (L/P), 3POPC/1POPG Vesicle” value in test [1] worked out at 0.75 L/P. For the same compound, the “Lipid Concentration-induced 50% Peptide Binding (L/P), POPC Vesicle” value in test [1] is reported as 1.00 L/P. In test [2], the “Peptide Concentration-induced 50 % ANTS/DPX leakage at pH 4.8 (L/P), 3POPC/1POPG Vesicle” value was 113 L/P. For the same compound, in test [2], the “Peptide Concentration-induced 50 % ANTS/DPX leakage at pH 4.8 (L/P), POPC Vesicle” value was determined as 143 L/P. Moreover, the “Peptide Concentration-induced 50 % ANTS/DPX leakage at pH 7.4 (L/P), 3POPC/1POPG Vesicle” value in test [2] came to 411 L/P. For the same compound, the “Peptide Concentration-induced 50 % ANTS/DPX leakage at pH 7.4 (L/P), POPC Vesicle” value in test [2] is 842 L/P.

As a reminder, the IC50 is the point on the concentration scale where inhibition reaches its midpoint. The low end stands for inhibition by little substance, the high end for a need for much substance.
